The target in the experiment is LRRK2 (Homo sapiens (Human), UniProt Q5S007). Put plainly: In Vitro LRRK2 Assay (LabChip 3000, fluorescently-labeled peptide substrate). The class given is biochemical. As to conditions: ATP 130 μM, substrate 1 μM, 2 hours, ambient temperature; LRRK2 variant not given; read-out: Ki (μM), affinity values for LRRK2. As for the experimental part: This assay was used to determine a compound's potency in inhibiting activity of LRRK2 by determining, Kiapp, IC50, or percent inhibition values. In a polypropylene plate, LRRK2, fluorescently-labeled peptide substrate, ATP and test compound were incubated together. Using a LabChip 3000 (Caliper Life Sciences), after the reaction the substrate was separated by capillary electrophoresis into two populations: phosphorylated and unphosphorylated. The relative amounts of each were quantitated by fluorescence intensity. LRRK2 Ki was determined according to the equation: Y=V0*(1−((x+Ki*(1+S/Km)+Et)/(2*Et)−(((x+Ki*(1+S/Km)+Et)^2−(4*Et*x))^0.5)/(2*Et))).
Sequence of LRRK2 (Q5S007 whole entry G2019S): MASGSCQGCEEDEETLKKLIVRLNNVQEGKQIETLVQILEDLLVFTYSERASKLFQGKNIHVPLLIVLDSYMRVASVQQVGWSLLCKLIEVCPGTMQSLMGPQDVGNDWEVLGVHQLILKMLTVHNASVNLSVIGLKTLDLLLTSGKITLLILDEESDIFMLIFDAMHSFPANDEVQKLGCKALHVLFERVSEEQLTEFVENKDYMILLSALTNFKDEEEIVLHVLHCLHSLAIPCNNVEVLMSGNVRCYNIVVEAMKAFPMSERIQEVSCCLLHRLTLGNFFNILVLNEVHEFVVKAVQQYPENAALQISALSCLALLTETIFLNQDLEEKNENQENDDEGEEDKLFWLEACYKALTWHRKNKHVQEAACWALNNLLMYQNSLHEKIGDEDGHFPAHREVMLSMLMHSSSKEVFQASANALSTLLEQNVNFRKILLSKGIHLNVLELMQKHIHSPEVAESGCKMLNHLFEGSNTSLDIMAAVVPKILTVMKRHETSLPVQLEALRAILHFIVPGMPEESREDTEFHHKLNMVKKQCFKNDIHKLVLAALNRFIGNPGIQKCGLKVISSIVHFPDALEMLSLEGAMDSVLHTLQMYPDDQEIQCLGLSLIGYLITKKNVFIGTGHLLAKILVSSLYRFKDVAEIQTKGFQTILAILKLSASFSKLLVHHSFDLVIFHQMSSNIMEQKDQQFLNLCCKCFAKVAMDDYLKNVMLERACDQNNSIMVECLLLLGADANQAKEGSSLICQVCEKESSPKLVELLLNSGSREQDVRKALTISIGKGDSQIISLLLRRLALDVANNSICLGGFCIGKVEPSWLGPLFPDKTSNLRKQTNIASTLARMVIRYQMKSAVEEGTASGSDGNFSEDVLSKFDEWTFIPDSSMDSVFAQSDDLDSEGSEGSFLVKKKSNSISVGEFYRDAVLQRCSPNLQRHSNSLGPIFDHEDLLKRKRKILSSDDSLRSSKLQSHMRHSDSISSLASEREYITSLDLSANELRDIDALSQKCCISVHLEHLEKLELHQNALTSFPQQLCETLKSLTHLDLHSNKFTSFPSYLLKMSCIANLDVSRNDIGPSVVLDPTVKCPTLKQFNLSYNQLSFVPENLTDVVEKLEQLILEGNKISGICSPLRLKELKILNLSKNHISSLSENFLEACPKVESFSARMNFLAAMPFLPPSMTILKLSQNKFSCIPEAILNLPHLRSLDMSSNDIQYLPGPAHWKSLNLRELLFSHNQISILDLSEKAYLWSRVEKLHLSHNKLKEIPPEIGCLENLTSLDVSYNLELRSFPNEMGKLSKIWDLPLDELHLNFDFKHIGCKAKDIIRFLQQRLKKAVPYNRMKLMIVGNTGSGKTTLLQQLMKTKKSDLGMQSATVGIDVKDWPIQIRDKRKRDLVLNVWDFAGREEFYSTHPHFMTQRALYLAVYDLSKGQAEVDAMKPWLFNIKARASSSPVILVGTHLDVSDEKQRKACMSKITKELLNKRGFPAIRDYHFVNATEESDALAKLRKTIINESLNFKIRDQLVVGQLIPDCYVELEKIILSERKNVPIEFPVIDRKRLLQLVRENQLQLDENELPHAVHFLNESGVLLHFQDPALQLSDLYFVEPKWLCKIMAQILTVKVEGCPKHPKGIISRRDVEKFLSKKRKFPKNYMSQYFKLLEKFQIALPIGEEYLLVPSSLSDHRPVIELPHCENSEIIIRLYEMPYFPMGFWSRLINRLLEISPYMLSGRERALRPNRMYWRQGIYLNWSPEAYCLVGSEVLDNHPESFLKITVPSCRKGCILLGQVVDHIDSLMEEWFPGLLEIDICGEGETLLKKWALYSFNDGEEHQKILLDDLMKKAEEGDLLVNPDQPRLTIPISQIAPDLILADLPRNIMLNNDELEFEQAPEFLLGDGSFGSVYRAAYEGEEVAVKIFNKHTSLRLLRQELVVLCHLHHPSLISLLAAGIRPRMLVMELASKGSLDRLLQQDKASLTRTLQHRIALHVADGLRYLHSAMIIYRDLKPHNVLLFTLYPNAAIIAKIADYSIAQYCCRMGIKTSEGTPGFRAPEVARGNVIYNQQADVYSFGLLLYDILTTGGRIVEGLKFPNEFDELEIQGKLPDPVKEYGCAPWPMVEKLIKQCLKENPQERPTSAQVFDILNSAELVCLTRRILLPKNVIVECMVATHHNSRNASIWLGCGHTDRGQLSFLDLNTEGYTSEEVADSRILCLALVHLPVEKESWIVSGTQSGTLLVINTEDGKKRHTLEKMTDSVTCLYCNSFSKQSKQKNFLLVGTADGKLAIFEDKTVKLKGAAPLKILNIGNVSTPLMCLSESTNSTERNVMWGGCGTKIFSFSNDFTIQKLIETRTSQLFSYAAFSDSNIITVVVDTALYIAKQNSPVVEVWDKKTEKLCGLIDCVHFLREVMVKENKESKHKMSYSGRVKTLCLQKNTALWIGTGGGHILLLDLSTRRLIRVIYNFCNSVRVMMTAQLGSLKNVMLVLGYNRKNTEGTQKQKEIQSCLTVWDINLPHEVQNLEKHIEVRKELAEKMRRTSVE
Ki values in Table 4 and elsewhere herein are shown in μM.
Assay conditions and materials used were as follows:
Compound Plate Preparation:
For serial dilutions, 34.6 μl DMSO was added to columns 3-24.
Total and Blank Preparation:
In Complete Reaction Buffer, substrate was diluted to 4 μM. Equal volumes of Complete Reaction Buffer and 4 μM substrate were combined to obtain the blank. Equal volumes of Complete Reaction Buffer and 4 μM substrate were combined and to the combined solution was added 2× final LRRK2 concentration.
To a 50 μl polypropylene plate, 5 μl/well buffer/substrate was added by hand to Blank wells. A Biomek FX was used to start the kinase reaction (“PLK SAR 23 ATP”). The following were added to the appropriate wells: • 2 μl compound+23 μl ATP; • 5 μl/well compound/ATP in Assay Plate; • 5 μl/well kinase/substrate in Assay Plate;
The plate was incubated for 2 hours in the dark. Biomek FX was used to stop the kinase reaction (“PLK Stop”), and 10 μl/well Stop solution was added to the Assay Plate. Results were read on the LabChip 3000.
The LabChip 3000 was run using the job “LRRK2 IC50” with the following job settings: • Pressure: −1.4 psi • Downstream voltage: −500 V • Upstream voltage: −2350 V • Post sample buffer sip time: 75 seconds • Post dye buffer sip time: 75 seconds • Final delay time: 200 seconds Parkinson's Disease Animal Model

Take `CC(C)n1cc(-c2n[nH]c3ccnc(OCC(F)(F)F)c23)cn1` [Example 76, 3-(1-Isopropyl-1H-pyrazol-4-yl)-4-(2,2,2-trifluoroethoxy)-1H-pyrazolo[4,3-c]pyridine]: the Ki worked out at 0.026 µM.

As to `CC(C)n1cc(-c2n[nH]c3ccnc(OC(C)C(F)(F)F)c23)cn1` (stereo not drawn) [Example 78, 3-(1-Isopropyl-1H-pyrazol-4-yl)-4-(2,2,2-trifluoro-1-methyl-ethoxy)-1H-pyrazolo[4,3-c]pyridine], the Ki is 0.013 µM.

In the case of `c1cc(-c2n[nH]c3ccnc(OC4CCOCC4)c23)nc(N2CCOCC2)n1` [Example 84, 4-(4-(4-(tetrahydro-2H-pyran-4-yloxy)-1H-pyrazolo[4,3-c]pyridin-3-yl)pyrimidin-2-yl)morpholine], the Ki amounted to 0.065 µM.

In the case of `COc1nccc2[nH]nc(-c3cnn(C4COC4)c3)c12` [Example 86], the Ki amounted to 0.031 µM.

Consider `COc1nccc2[nH]nc(-c3cnn(CC(F)(F)F)c3)c12` [Example 88, 4-Methoxy-3-(1-(2,2,2-trifluoroethyl)-1H-pyrazol-4-yl)-1H-pyrazolo[4,3-u]pyridine], for which the Ki amounted to 0.025 µM.

For the compound `COc1nccc2[nH]nc(-c3cnn(CC4(C)COC4)c3)c12` [Example 89, 4-Methoxy-3-(1-((3-methyloxetan-3-yl)methyl)-1H-pyrazol-4-yl)-1H-pyrazolo[4,3-c]pyridine], the Ki stood at 0.108 µM.

Regarding `c1cc2[nH]nc(-c3cnn(CC4CCOCC4)c3)c2c(OC2CCOCC2)n1` [Example 93, 3-(1-((Tetrahydro-2H-pyran-4-yl)methyl)-1H-pyrazol-4-yl)-4-(tetrahydro-2H-pyran-4-yloxy)-1H-pyrazolo[4,3-c]pyridine], the Ki amounted to 0.011 µM.

On to `FC(F)(F)Cn1cc(-c2n[nH]c3ccnc(OC4CCOCC4)c23)cn1` [Example 96, 4-(tetrahydro-2H-pyran-4-yloxy)-3-(1-(2,2,2-trifluoroethyl)-1H-pyrazol-4-yl)-1H-pyrazolo[4,3-c]pyridine], for which the inhibitory constant (Ki) was 0.006 µM.

Regarding `c1cc2[nH]nc(-c3cnn(C4CCOC4)c3)c2c(OC2CCOCC2)n1` (stereo not drawn) [Example 98, 4-(Tetrahydro-2H-pyran-4-yloxy)-3-(1-(tetrahydrofuran-3-yl)-1H-pyrazol-4-yl)-1H-pyrazolo[4,3-c]pyridine], the inhibition constant Ki was found to be 0.005 µM.

Take `Cc1cc(-c2n[nH]c3ccnc(OC4CCOCC4)c23)cc(C)n1` [Example 100, 3-(2,6-Dimethylpyridin-4-yl)-4-(tetrahydro-2H-pyran-4-yloxy)-1H-pyrazolo[4,3-c]pyridine]: the Ki was determined as 0.005 µM.

As to `COc1cc(-c2n[nH]c3ccnc(OC4CCOCC4)c23)ccn1` [Example 101, 3-(2-Methoxypyridin-4-yl)-4-(tetrahydro-2H-pyran-4-yloxy)-1H-pyrazolo[4,3-c]pyridine], the Ki is 0.022 µM.

On to `Fc1c(-c2n[nH]c3ccnc(OC4CCOCC4)c23)ccnc1N1CCOCC1` [Example 103, 4-(3-Fluoro-4-(4-(tetrahydro-2H-pyran-4-yloxy)-1H-pyrazolo[4,3-c]pyridin-3-yl)pyridin-2-yl)morpholine], for which the inhibitory constant (Ki) came to 0.046 µM.

As for `COc1cc(-c2n[nH]c3ccnc(OC)c23)ccn1` [Example 106, 4-Methoxy-3-(2-methoxypyridin-4-yl)-1H-pyrazolo[4,3-c]pyridine], the inhibition constant (Ki) was 0.08 µM.

Consider `COc1nccc2[nH]nc(-c3ccnc(N4CCOCC4)c3)c12` [Example 107, 4-(4-(4-Methoxy-1H-pyrazolo[4,3-c]pyridin-3-yl)pyridin-2-yl)morpholine], for which the inhibitory constant (Ki) was 0.029 µM.

On to `COc1nccc2[nH]nc(-c3ccnc(C(F)(F)F)c3)c12` [Example 108, 4-Methoxy-3-(2-(trifluoromethyl)pyridin-4-yl)-1H-pyrazolo[4,3-c]pyridine], for which the Ki worked out at 0.075 µM.

Consider `COc1nccc2n[nH]c(-c3ccc(C(=O)N4CCOCC4)c(Cl)c3)c12` [Example 109, (2-Chloro-4-(4-methoxy-1H-pyrazolo[4,3-c]pyridin-3-yl)phenyl)(morpholino)methanone], for which the Ki stood at 0.209 µM.

In the case of `c1cc(-c2n[nH]c3ccnc(OC4CCOCC4)c23)cc(N2CCCC2)n1` [Example 110, 3-(2-(Pyrrolidin-1-yl)pyridin-4-yl)-4-(tetrahydro-2H-pyran-4-yloxy)-1H-pyrazolo[4,3-c]pyridine], the Ki worked out at 0.003 µM.

For `CC1CCCN(c2cc(-c3n[nH]c4ccnc(OC5CCOCC5)c34)ccn2)C1` (stereo not drawn) [Example 111, 3-(2-(3-Methylpiperidin-1-yl)pyridin-4-yl)-4-(tetrahydro-2H-pyran-4-yloxy)-1H-pyrazolo[4,3-c]pyridine], the Ki is 0.006 µM.

Take `c1cc(-c2n[nH]c3ccnc(OC4CCOCC4)c23)cc(NC2COC2)n1` [Example 113, N-(Oxetan-3-yl)-4-(4-(tetrahydro-2H-pyran-4-yloxy)-1H-pyrazolo[4,3-c]pyridin-3-yl)pyridin-2-amine]: the inhibition constant Ki was 0.136 µM.

With `c1cc(-c2n[nH]c3ccnc(OC4CCOCC4)c23)cc(N2CCC2)n1` [Example 114, 3-(2-(Azetidin-1-yl)pyridin-4-yl)-4-(tetrahydro-2H-pyran-4-yloxy)-1H-pyrazolo[4,3-c]pyridine], the inhibitory constant (Ki) came out at 0.009 µM.

Take `Cn1cc(-c2cc(-c3n[nH]c4ccnc(OC5CCOCC5)c34)ccn2)cn1` [Example 116, 3-(2-(1-Methyl-1H-pyrazol-4-yl)pyridin-4-yl)-4-(tetrahydro-2H-pyran-4-yloxy)-1H-pyrazolo[4,3-c]pyridine]: the Ki came to 0.01 µM.

For `COc1nccc2[nH]nc(-c3ccnc(N4[C@@H]5CC[C@H]4COC5)c3)c12` [Example 117, 8-(4-(4-Methoxy-1H-pyrazolo[4,3-c]pyridin-3-yl)pyridin-2-yl)-3-oxa-8-azabicyclo[3.2.1]octane], the Ki stood at 0.08 µM.

Turning to `COc1nccc2[nH]nc(-c3ccnc(N4C[C@@H]5C[C@H]4CO5)c3)c12` [Example 118, (1S,4S)-5-(4-(4-Methoxy-1H-pyrazolo[4,3-c]pyridin-3-yl)pyridin-2-yl)-2-oxa-5-azabicyclo[2.2.1]heptanes], the Ki amounted to 0.051 µM.

With `COc1nccc2[nH]nc(-c3ccnc(N4CCCC4)c3)c12` [Example 119, 4-Methoxy-3-(2-(pyrrolidin-1-yl)pyridin-4-yl)-1H-pyrazolo[4,3-c]pyridine], the Ki is 0.026 µM.

As for `COc1nccc2[nH]nc(-c3ccnc(-c4cnn(C)c4)c3)c12` [Example 121, 4-Methoxy-3-(2-(1-methyl-1H-pyrazol-4-yl)pyridin-4-yl)-1H-pyrazolo[4,3-c]pyridine], the Ki was found to be 0.042 µM.

As for `c1cc2[nH]nc(-c3ccc4ncn(C5CCOC5)c4c3)c2c(OC2CCOCC2)n1` (stereo not drawn) [Example 128, 4-(Tetrahydro-2H-pyran-4-yloxy)-3-(1-(tetrahydrofuran-3-yl)-1H-benzo[d]imidazol-6-yl)-1H-pyrazolo[4,3-c]pyridine], the Ki stood at 0.034 µM.

For `c1cc2[nH]nc(-c3ccc4c(c3)ncn4C3CCOC3)c2c(OC2CCOCC2)n1` (stereo not drawn) [Example 129, 4-(tetrahydro-2H-pyran-4-yloxy)-3-(1-(tetrahydrofuran-3-yl)-1H-benzo[d]imidazol-5-yl)-1H-pyrazolo[4,3-c]pyridine], the Ki turned out to be 0.01 µM.

On to `Clc1ccccc1C#Cc1[nH]nc2ccnc(OC3CCOCC3)c12` [Example 132, 3-((2-Chlorophenyl)ethynyl)-4-(tetrahydro-2H-pyran-4-yloxy)-1H-pyrazolo[4,3-c]pyridine], for which the Ki came out at 0.005 µM.

For `O=C(c1ccc(-c2[nH]nc3ccnc(OC4CCOCC4)c23)cc1)N1CCOCC1` [Example 133, Morpholino(4-(4-(tetrahydro-2H-pyran-4-yloxy)-1H-pyrazolo[4,3-c]pyridin-3-yl)phenyl)methanone], the Ki turned out to be 0.076 µM.

On to `CN(C)C(=O)c1ccc(-c2[nH]nc3ccnc(OC4CCOCC4)c23)cc1F` [Example 135, 2-Fluoro-N,N-dimethyl-4-(4-(tetrahydro-2H-pyran-4-yloxy)-1H-pyrazolo[4,3-c]pyridin-3-yl)benzamide], for which the Ki was 0.104 µM.

For `c1cc2[nH]nc(-c3ccc4cn[nH]c4c3)c2c(OC2CCOCC2)n1` [Example 138, 3-(1H-Indazol-6-yl)-4-(tetrahydro-2H-pyran-4-yloxy)-1H-pyrazolo[4,3-c]pyridine], the Ki was 0.013 µM.

In the case of `c1cc2[nH]nc(-c3ccc4nc[nH]c4c3)c2c(OC2CCOCC2)n1` [Example 139, 3-(1H-Benzo[d]imidazol-6-yl)-4-(tetrahydro-2H-pyran-4-yloxy)-1H-pyrazolo[4,3-c]pyridine], the inhibition constant (Ki) amounted to 0.014 µM.

As to `Cn1ncc2cc(-c3n[nH]c4ccnc(OC5CCOCC5)c34)ccc21` [Example 140, 3-(1-Methyl-1H-indazol-5-yl)-4-(tetrahydro-2H-pyran-4-yloxy)-1H-pyrazolo[4,3-c]pyridine], the inhibition constant (Ki) stood at 0.013 µM.

(Values after patent US8569281B2, “Compounds and their administration for treating a neurodegenerative disease as well as a method for identifying a compound capable of inhibiting a kinase, such as LRRK” (Medical Research Council Technology, priority 2010, dated 2013).)
